Some test systems named below: UO-31 renal; ACHN renal; OVCAR-5 ovarian; SW-620 colon; OVCAR-3 ovarian; SK-MEL-5 melanoma; HS 578T breast; HCT-15 colon; EKVX NSCLC; MDA-N.
Holding throughout (assay): NCI anticancer screen, dose series, 48 h

Structures are written as SMILES.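 Assay format: 96-well plates, 48-hour exposure. TGI: total growth inhibition.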

`O=C(NNS(=O)(=O)c1ccc(Br)cc1)c1ccc(Cl)cc1NC(=O)C12CC3CC(CC(C3)C1)C2`: the TGI is 24.2 µM with UO-31 renal; 29.7 µM in the assay on ACHN renal; 34.3 µM with OVCAR-5 ovarian; 41.4 µM in the assay on SW-620 colon; 26.5 µM in the assay on OVCAR-3 ovarian; 23.2 µM in the assay with SK-MEL-5 melanoma. In addition, the TGI was determined as 40.7 µM with HS 578T breast, 45.4 µM in the assay on HCT-15 colon, 27.3 µM in the assay with EKVX NSCLC and 32.2 µM in the assay with MDA-N.
Regarding `O=S(c1ccccc1)C1CC2CC3(CCC21O)OCCO3` (stereo not given), the TGI in the assay with UO-31 renal, with ACHN renal, in the assay with OVCAR-5 ovarian, in the assay on SW-620 colon, in the assay on OVCAR-3 ovarian and with SK-MEL-5 melanoma was greater than 100 µM in each case. The TGI in the assay on HS 578T breast, in the assay on HCT-15 colon, in the assay on EKVX NSCLC and in the assay on MDA-N was greater than 100 µM each time.
As for `Clc1ccc2nc3n[nH]c(Cl)c3nc2c1`, the TGI in the assay on UO-31 renal is 68.2 µM; with ACHN renal, greater than 100 µM; with OVCAR-5 ovarian, greater than 100 µM; in the assay on SW-620 colon, greater than 100 µM; in the assay with OVCAR-3 ovarian it was greater than 100 µM; in the assay on SK-MEL-5 melanoma, 97.8 µM. For the same molecule, the TGI is 63.6 µM with HS 578T breast, greater than 100 µM in the assay with HCT-15 colon, 85.4 µM in the assay with EKVX NSCLC and greater than 100 µM in the assay with MDA-N.
For `C/C(=N\NC(=O)CC#N)C(CN1CCCCC1)C(c1ccccc1)c1c(O)c2ccccc2oc1=O` (stereo not given), the TGI with UO-31 renal, with ACHN renal, in the assay on OVCAR-5 ovarian, with SW-620 colon, in the assay with OVCAR-3 ovarian and with SK-MEL-5 melanoma was greater than 100 µM in each case. Besides, the TGI in the assay with HS 578T breast, with HCT-15 colon, in the assay on EKVX NSCLC and in the assay with MDA-N was greater than 100 µM in each case.
For the molecule `Nc1ncnc2c1ncn2C1OC(CO)C(O)C1NS(=O)(=O)c1ccccc1` (stereo not given), the TGI with UO-31 renal, with ACHN renal, in the assay with OVCAR-5 ovarian, in the assay on SW-620 colon, in the assay on OVCAR-3 ovarian and in the assay with SK-MEL-5 melanoma was greater than 100 µM throughout. Further, the TGI in the assay with HS 578T breast, in the assay on HCT-15 colon, in the assay with EKVX NSCLC and in the assay with MDA-N was greater than 100 µM each time.
As for `C=CC(C)(C)C1(CC(OC)OC)C(=O)N(C)c2ccccc21` (stereo not given), the TGI in the assay with UO-31 renal, with ACHN renal, in the assay on OVCAR-5 ovarian, with SW-620 colon, with OVCAR-3 ovarian and in the assay with SK-MEL-5 melanoma was greater than 25 µM throughout. Moreover, the TGI in the assay on HS 578T breast, in the assay on HCT-15 colon, in the assay with EKVX NSCLC and in the assay on MDA-N was greater than 25 µM throughout.
As for `C=C1C(=O)[C@]23C[C@H]1C[C@@H](O)[C@H]2[C@]1(COC3=O)[C@@H](OC(C)=O)CC[C@@](C)(COC(C)=O)[C@H]1C=O`, the TGI in the assay on UO-31 renal is greater than 50 µM; in the assay with ACHN renal it was greater than 50 µM; with OVCAR-5 ovarian, greater than 50 µM; in the assay with SW-620 colon it was 18.7 µM; in the assay on OVCAR-3 ovarian, greater than 50 µM; with SK-MEL-5 melanoma, greater than 50 µM. The TGI in the assay on HS 578T breast, with HCT-15 colon, with EKVX NSCLC and in the assay on MDA-N was greater than 50 µM each time.
Take `c1ccc(C(c2cccc3c2ccc2ccccc23)C(c2ccccc2)c2cccc3c2ccc2ccccc23)cc1` (stereo not given): the TGI in the assay with UO-31 renal, in the assay with ACHN renal, in the assay on OVCAR-5 ovarian, in the assay on SW-620 colon, in the assay with OVCAR-3 ovarian and with SK-MEL-5 melanoma was greater than 100 µM throughout. For the same molecule, the TGI in the assay on HS 578T breast, in the assay with HCT-15 colon, in the assay with EKVX NSCLC and in the assay on MDA-N was greater than 100 µM in each case.
As to `CC(C)NCC(O)c1ccc(O)c2ncccc12` (stereo not given), the TGI is greater than 100 µM in the assay on UO-31 renal; greater than 100 µM with ACHN renal; greater than 100 µM with OVCAR-5 ovarian; greater than 100 µM in the assay on SW-620 colon; 55 µM in the assay with OVCAR-3 ovarian; greater than 100 µM in the assay with SK-MEL-5 melanoma. For the same molecule, the TGI in the assay on HS 578T breast, with HCT-15 colon, in the assay with EKVX NSCLC and in the assay on MDA-N was greater than 100 µM throughout.
`N#C/C=c1/c2ccccc2n2nc3ccccc3c12`: the TGI is greater than 100 µM in the assay on UO-31 renal; 27.9 µM in the assay with ACHN renal; greater than 100 µM with OVCAR-5 ovarian; greater than 100 µM in the assay with SW-620 colon; greater than 100 µM in the assay with OVCAR-3 ovarian; greater than 100 µM in the assay with SK-MEL-5 melanoma. Moreover, the TGI in the assay on HS 578T breast, in the assay with HCT-15 colon, with EKVX NSCLC and in the assay with MDA-N was greater than 100 µM each time.
With `COC(=O)[C@@H]1[C@H](O)CCC2=C(CC(=O)c3ccoc3)[C@H](C)CC[C@]21C`, the TGI in the assay with UO-31 renal, in the assay with ACHN renal, with OVCAR-5 ovarian, in the assay with SW-620 colon, in the assay with OVCAR-3 ovarian and in the assay on SK-MEL-5 melanoma was greater than 50 µM throughout. For the same molecule, the TGI in the assay on HS 578T breast, with HCT-15 colon, in the assay with EKVX NSCLC and in the assay with MDA-N was greater than 50 µM each time.
As to `O=C(/C=C/c1ccc(OCc2ccccc2)cc1)NCc1ccc(C(=O)NCc2ccccc2)cc1`, the TGI with UO-31 renal, in the assay on ACHN renal, with OVCAR-5 ovarian, in the assay with SW-620 colon, in the assay with OVCAR-3 ovarian and in the assay with SK-MEL-5 melanoma was greater than 100 µM throughout. The TGI in the assay with HS 578T breast, with HCT-15 colon, in the assay on EKVX NSCLC and with MDA-N was greater than 100 µM in each case.
On to `COc1ccc(C(=O)c2c(-c3ccccc3NC(=O)C(F)(F)F)[nH]c3ccccc23)cc1`, for which the TGI in the assay on UO-31 renal came to 19.4 µM; with ACHN renal it was 11.6 µM; in the assay on OVCAR-5 ovarian, 25.5 µM; with SW-620 colon, 16.7 µM; with OVCAR-3 ovarian, 8.67 µM; with SK-MEL-5 melanoma it was 22 µM. For the same molecule, the TGI worked out at 46.9 µM in the assay on HS 578T breast, 19.9 µM in the assay with HCT-15 colon, 24.4 µM in the assay on EKVX NSCLC and 29.3 µM in the assay on MDA-N.
Regarding `NC(=S)Nc1ccc2c(c1)oc1ccccc12`, the TGI in the assay with UO-31 renal, in the assay with ACHN renal, in the assay with OVCAR-5 ovarian, in the assay on SW-620 colon, in the assay with OVCAR-3 ovarian and in the assay on SK-MEL-5 melanoma was greater than 100 µM in each case. Moreover, the TGI in the assay with HS 578T breast, in the assay with HCT-15 colon, with EKVX NSCLC and in the assay with MDA-N was greater than 100 µM throughout.
As for `Nc1nc2c(c(-c3ccccc3Cl)n1)COC/C2=C\c1ccccc1Cl`, the TGI came out at 32 µM with UO-31 renal; 32.3 µM in the assay on ACHN renal; 31.7 µM with OVCAR-5 ovarian; 31.8 µM in the assay on SW-620 colon; 31.2 µM in the assay on OVCAR-3 ovarian; 31.7 µM with SK-MEL-5 melanoma. The TGI in the assay with HS 578T breast is 51 µM; in the assay with HCT-15 colon, 39.9 µM; in the assay with EKVX NSCLC, 35.2 µM; with MDA-N, 24.1 µM.
As to `C/C(=N/NC(=S)Nc1cccc(Cl)c1)c1ccccn1`, the TGI in the assay on UO-31 renal was 5.03 µM; in the assay with ACHN renal it was 8.13 µM; with OVCAR-5 ovarian, 3.46 µM; with SW-620 colon, 17.9 µM; with OVCAR-3 ovarian, 12.3 µM; in the assay on SK-MEL-5 melanoma it was 4 µM. Also, the TGI worked out at 10.1 µM in the assay on HS 578T breast, 16.1 µM in the assay on HCT-15 colon, 3.33 µM in the assay on EKVX NSCLC and 15.5 µM in the assay with MDA-N.
`CC(C(=O)NCCNC(=O)CCC(=O)N(C)O)C(=O)NCCNC(=O)CCC(=O)N(C)O`: the TGI with UO-31 renal, in the assay with ACHN renal, in the assay on OVCAR-5 ovarian, with SW-620 colon, in the assay with OVCAR-3 ovarian and with SK-MEL-5 melanoma was greater than 100 µM in each case. The TGI in the assay with HS 578T breast, in the assay with HCT-15 colon, in the assay on EKVX NSCLC and in the assay with MDA-N was greater than 100 µM throughout.
